Test results as given in EP0111455A2, “Unsaturated lactones” (CIBA-GEIGY AG, priority 1982, dated 1984).

What was measured:
[1] = tested on: isolierten, elektrisch gereizten, linken Vorhöfen des Meerschweinchens; test: positive inotropic effect on isolated, electrically stimulated left atria (method after J.V. Levy); type: cell-based, Meerschweinchen; conditions: for IC25 / IC50: negative inotropic effect, same set-up; for IC25: read-out: Konzentration für Reduktion der Kontraktionskraft um 25 %; for IC50: read-out: Konzentration für Reduktion der Kontraktionskraft um 50 %; for Kontraktionskraft (Art der Wirkung): qualitative, exclusively a decrease of contraction force; for Emax: Cavia porcellus, extent of positive inotropic effect in % of the maximal increase of contraction force by Isoproterenol, read-out: Ausmass der Wirkung (% von ISOmax); for EC50: concentration for half of the maximal positive inotropic effect, left atria, guinea pig, read-out: Wirksamkeit EC50
From the text: (§1) Die Steigerung der myocardialen Kontraktilität, d.h. die positiv inotrope Wirkung, kann z.B. anhand von Versuchsanordnungen nachgewiesen werden, die sich auf die von J.V. Levy, Isolated Atrial Preparations in Methods in Pharmacology, Bd. 1, S. 77 bis 104 (Ed. A. Schwartz; Appleton-Century-Crofts, New York; 1971),beschriebene Methodik, stützen. So steigern die Verbindungen der Formel I und Salze von solchen Verbindungen mit salzbildenden Eigenschaften in Konzentrationen ab etwa 0,1 umol/L an isolierten, elektrisch gereizten, linken Vorhöfen des Meerschweinchens (in vitro-Versuchsanordnung) die maximale Kontraktionskraft (peak developed tension). Das Ausmass (efficacy) dieser positiv inotropen Wirkung ist dabei unterschiedlich, kann jedoch bis zu 90 % der mit Isoproterenol maximal erreichbaren Wirkung betragen. Ferner steigern sie in Konzentrationen ab etwa 0,3 µ mol/L an isolierten, spontan schlagenden, rechten Vorhöfen des Meerschweinchens die Kontraktionsfrequenz. Das Ausmass (efficacy) dieser positiv chronotropen Wirkung ist dabei unterschiedlich, kann jedoch bis zu 60% der mit Isoproterenol maximal erreichbaren Wirkung betragen.
In der folgenden Tabelle werden die Konzentrationen (in µmol/L) für Verbindungen der Formel I angegeben, die notwendig sind, um die Hälfte der maximalen positiv inotropen Wirkung zu erzielen (EC50). Das Ausmass der Wirkung wird in % der maximalen, mittels Isoproterenol in dieser Versuchsanordnung bewirkten Steigerung der Kontraktionskraft (ISOmax.) angegeben; diejenige von Isoproterenol beträgt +2.1 +0.1 g (x ± SK; N=30).
Im Gegensatz dazu weist z.B. der obgenannte 2-Cyan-6-methyl-4-(3-nitrophenyl)-1,4-dihydro-pyridin-3,5-dicarbonsäure-5-isopropylester-3-methylester in der gleichen Versuchsanordnung eine Reduktion der Kontraktionskraft um 25 % bei einer Konzentration von 1 µmol/L und um 50 % bei einer solchen von 8 µmol/L auf, während Nifedipin bei einer Konzentration von 0.1 µmol/L eine 25 %ige und von 0.4 µmo 1/1 eine 50 Zige Reduktion der myocardialen Kontraktionskraft bewirkt.

[2] = tested on: isolierten, spontan schlagenden, rechten Vorhöfen des Meerschweinchens; test: positive chronotropic effect on isolated, spontaneously beating right atria; type: cell-based, Meerschweinchen; conditions: qualitative; exclusively a decrease of contraction frequency
From the text: as §1

[3] = tested on: narkotisierten Katze; test: arterial blood pressure in the anaesthetised cat, intravenous; type: in vivo; conditions: qualitative, i.v., doses from about 0,001 mg/kg
Protocol: An der narkotisierten Katze führen die Verbindungen der Formel I und Salze von solchen Verbindungen mit salzbildenden Eigenschaften bei intravenöser Verabreichung in Dosen ab etwa 0,001 mg/kg zu einer Steigerung des arteriellen Blutdrucks.

[4] = tested on: männliche Ratten; test: central nervous system stimulation (behaviour) in male rats, i.p.; type: in vivo; conditions: 50 mg/kg i.p. as solution in Polyäthylenglycol 400; during 1 hour, especially 30 minutes after administration
Protocol: Die Verbindungen der Formel I sowie Salze von solchen Verbindungen mit salzbildenden Eigenschaften wirken ferner aktivierend, insbesondere stimulierend, auf das Zentralnervensystem. So bewirkt z.B. die i.p.-Verabreichung von 50 mg/kg 4-(2-Difluormethoxyphenyl)-2-methyl-5-oxo-1,4,5,7-tetrahydro-fuo[3,4-b]pyridin-3-carbonsäureäthylester als Lösung in Polyäthylenglycol 400 an männliche Ratten während 1 Stunde, insbesondere während 30 Minuten nach Verabreichung Schnuppern, Kau- und Putzaktivität, sporadische. Schüttelbewegungen von Kopf und Körper sowie Vorderpfoten-Klonus. Aufgrund dieser Eigenschaften erscheinen die Verbindungen der Formel I sowie Salze von solchen Verbindungen mit salzbildenden Eigenschaften für die Behandlung retardierter Depressionen verschiedenen Schweregrades, von psychischen, von fehlendem Antrieb und Initiative begleiteten Störungen sowie von hypokinetischen, geriatrischen Patienten geeignet.

[5] = tested on: narkotisierten Hund; test: haemodynamics and blood glucose in the anaesthetised dog, intravenous; type: in vivo; conditions: qualitative
Protocol: Im narkotisierten Hund (in vivo-Versuchsanordnung) bewirken die Verbindungen der Formel I und Salze von solchen Verbindungen mit salzbildenen Eigenschaften bei intravenöser Verabreichung in Dosen ab etwa 1 mg/kg ebenfalls eine Steigerung der myokardialen Kontraktilität (Zunahme der maximalen Druckanstiegsgeschwindigkeit dP/dt in der max Aorta) um etwa 40 bis etwa 60 %, sowie eine Steigerung des arteriellen Blutdrucks um etwa 10 bis etwa 30 %, ferner eine Abnahme der GlucoseKonzentration im Blut um etwa 10 bis etwa 30 %.

Row | Structure (SMILES) | EC50 [1] [nM] | Emax [1] [%] | also measured
1 | COC(=O)C1=C(C#N)NC(C)=C(C(=O)OC(C)C)C1c1cccc([N+](=O)[O-])c1 (centres unmarked) [2-Cyan-6-methyl-4-(3-nitrophenyl)-1,4-dihydro-pyridin-3,5-dicarbonsäure-5-isopropylester-3-methylester, reference compound] |  |  | IC25 [1]: 1000 nM; IC50 [1]: 8000 nM; Kontraktionskraft (Art der Wirkung) [1]: negativ inotrope Wirkung; Kontraktionsfrequenz (Art der Wirkung) [2]: negativ chronotrope Wirkung; arterieller Blutdruck (Art der Wirkung) [3]: Senkung des arteriellen Blutdrucks
2 | CCOC(=O)C1=C(C)NC2=C(C(=O)OC2)C1c1ccccc1OCCSC (centres unmarked) [2-Methyl-4-[2-(2-methylthioäthoxy)-phenyl]-5-oxo-_ 1,4,5,7-tetrahydro-fnro[3,4-b]pyridin-3-carbonsäure-äthylester] | 380 | 75 | 
3 | CCOC(=O)C1=C(C)NC2=C(C(=O)OC2)C1c1ccccc1OC(F)(F)C(F)Cl (centres unmarked) [4-[2-(2-Chlor-1,1,2-trifluor-äthoxy)-phenyl]-2-methyl-5-oxo-1,4,5,7-tetrahydro-furo-[3,4-b]pyridin-3-carbonsäureäthylester] | 1000 | 75 | 
4 | CC1=C(C#N)C(c2ccccc2OC(F)F)C2=C(COC2=O)N1 (centres unmarked) [-CN; 2-Difluormethoxy-phenyl, 4-(2-Difluormethoxy-phenyl)-2-methyl-5-oxo-1,4,5,7-tetrahydro-furo[3,4-b]pyridin-3-carbonitril] | 63000 | 68 | 
5 | CCOC(=O)C1=C(C)NC2=C(C(=O)OC2)C1c1cccc(OC(F)F)c1OC(F)F (centres unmarked) [-COOC2H5; 2,3-Di-difluor-methoxyphenyl, 4-[2,3 Di-(difluormethoxy)-phenyl]-2-methyl-5-oxo-1,4,5,7-tetrahydro-furo[3,4-b]pyridin-3-carbonsäure-äthylester] |  | 14 | 
6 | CCOC(=O)C1=C(C)NC2=C(C(=O)OC2)C1c1ccc(OC(F)F)cc1 (centres unmarked) [-COOC2H5; 4-Difluormethoxy-phenyl, 4-(4-Difluormethoxy-phenyl)-2-methyl-5-oxo-1,4,5,7-tetrahydro-furo[3,4-b]pyridin-3-carbonsäureäthylester] |  | 10 | 
7 | CC(C)NCC(O)c1ccc(O)c(O)c1 (centres unmarked) [Isoproterenol, reference compound] |  |  | maximale Steigerung der Kontraktionskraft (ISOmax.) ([1]; x ± SK, N=30): 2.1 ± 0.1 g
8 | COC(=O)C1=C(C)NC(C)=C(C(=O)OC)C1c1ccccc1[N+](=O)[O-] [Nifedipin, 2,6-Dimethyl-4-(2-nitrophenyl)-1,4-dihydro-pyridin-3,5-dicarbonsäure-dimethylester, reference compound] |  |  | IC25 [1]: 100 nM; IC50 [1]: 400 nM; Kontraktionskraft (Art der Wirkung) [1]: negativ inotrope Wirkung; Kontraktionsfrequenz (Art der Wirkung) [2]: negativ chronotrope Wirkung; Blutdruck (Art der Wirkung) [5]: Senkung des Blutdrucks; arterieller Blutdruck (Art der Wirkung) [3]: Senkung des arteriellen Blutdrucks

More lines, main results first:

Row | EC50 [1] [nM] | Structure (SMILES) | Emax [1] [%] | also measured
9 | 5300 | COCCOC(=O)C1=C(C)NC2=C(C(=O)OC2)C1c1ccccc1OC(F)F (centres unmarked) [-COOC2H4OCH3; 2-Difluormethoxy-phenyl, 4-(2-Difluormethoxyphenyl)-2-methyl-5-oxo-1,4,5,7-tetrahydro-furo[3,4-b]pyridin-3-carbonsäure-(2-methoxyäthyl)-ester] | 90 | 
10 | 3800 | CCOC(=O)C1=C(C)NC2=C(C(=O)OC2)C1c1ccccc1OCCOC (centres unmarked) [-COOC2H5; 2-(2-Methoxyäthoxy)-phenyl, 2 Methyl-4-[2-(2-methoxyäthoxy)-phenyl]-5-oxo-1,4,5,7-tetrahydro-furo[3,4-b]pyridin-3-carbonsäure-äthylester] | 80 | 
11 | 700 | CCOC(=O)C1=C(C)NC2=C(C(=O)OC2)C1c1ccccc1OC(F)F (centres unmarked) [-COOC2H5; 2-Difluormethoxy-phenyl, 4-(2-Difluormethoxy-phenyl)-2-methyl-5-oxo-1,4-5,7-tetrahydro-furo[3,4-b]pyridin-3-carbonsäureäthylester] | 65 | Wirkung auf das Zentralnervensystem (Verhalten) [4]: Schnuppern, Kau- und Putzaktivität, sporadische. Schüttelbewegungen von Kopf und Körper sowie Vorderpfoten-Klonus
12 | 1000 | CCOC(=O)C1=C(C)NC2=C(C(=O)OC2)C1c1ccccc1SC(F)F (centres unmarked) [-COOC2H5; 2-Difluormethyl-mercaptophenyl, 4-(2-Difluormethylmercaptophenyl)-2-methyl-5-oxo-1,4,5,7-tetrahydro-furo[3,4-b]pyridin-3-carbonsäure-äthylester] | 80 | 
13 | 4800 | CCOC(=O)C1=C(C)NC2=C(C(=O)OC2)C1c1cccc(OC(F)F)c1 (centres unmarked) [-COOC2H5; 3-Difluormethoxy-phenyl, 4-(3-Difluormethoxyphenyl)-2-methyl-5-oxo-1,4,5,7-tetrahydro-furo [3,4-b]pyridin-3-carbonsäure-äthylester] | 65 | 
14 | 3700 | COC(=O)C1=C(C)NC2=C(C(=O)OC2)C1c1ccccc1OC(F)F (centres unmarked) [-COOCH3; 2-Difluormethoxy-phenyl, 4-(2-Difluormethoxyphenyl)-2-methyl-5-oxo-l,4,5,7-tetrahydro-furo[3,4-b]pyridin-3-carbonsäure-methylester] | 70 | 
15 | 1200 | CC1=C(C(=O)OC(C)C)C(c2ccccc2OC(F)F)C2=C(COC2=O)N1 (centres unmarked) [-COOCH(CH3)2; 2-Difluormethoxy-phenyl, 4-(2-Difluormethoxyphenyl)-2-methyl-5-oxo-1,4,5,7-tetra-hydro-furo[3,4-b]pyridin-3-carbonsäure-isopropylester] | 70 | 
